This note sets out measurements from patent US7323465B2, “Alkansulfonamides as endothelin antagonists” (Actelion Pharmaceuticals Ltd., priority 2002, dated 2008).

In assay [1] the target is T1, human recombinant ETA receptors (Homo sapiens, UniProt P25101).
T1 construct: expressed in transfected cells; host or cells: CHO cells (microsomal membranes)
T1 sequence (P25101 21-427): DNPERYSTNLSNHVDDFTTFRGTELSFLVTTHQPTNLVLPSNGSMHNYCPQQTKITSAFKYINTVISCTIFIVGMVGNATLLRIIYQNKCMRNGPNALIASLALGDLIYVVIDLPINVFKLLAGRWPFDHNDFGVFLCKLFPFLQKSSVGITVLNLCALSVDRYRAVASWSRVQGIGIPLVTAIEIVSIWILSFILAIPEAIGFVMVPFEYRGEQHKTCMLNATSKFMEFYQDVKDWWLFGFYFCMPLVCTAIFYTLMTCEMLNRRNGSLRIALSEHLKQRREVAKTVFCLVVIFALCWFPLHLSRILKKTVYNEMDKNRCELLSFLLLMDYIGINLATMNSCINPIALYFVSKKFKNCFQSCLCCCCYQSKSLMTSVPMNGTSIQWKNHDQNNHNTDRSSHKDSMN
Briefly: Inhibition of [125I]ET-1 binding to membranes from CHO cells carrying human ETA receptors. As for the experimental part:
(§1) 1) Inhibition of Endothelin Binding to Membranes from CHO Cells Carrying Human ET Receptors:
(§2) For competition binding studies, membranes of CHO cells expressing human recombinant ETA or ETB receptors were used.
(§3) The assay was performed in 200 uL 50 mM Tris/HCl buffer, pH 7.4, including 25 mM MnCl2, 1 mM EDTA and 0.5% (w/v) BSA in polypropylene microtiter plates. […] After 2 h, the membranes were filtered on filterplates containing GF/C filters (Unifilterplates from Canberra Packard S.A. Zürich, Switzerland). To each well, 50 uL of scintillation cocktail was added (MicroScint 20, Canberra Packard S.A. Zürich, Switzerland) and the filter plates counted in a microplate counter (TopCount, Canberra Packard S.A. Zürich, Switzerland).
(§4) All the test compounds were dissolved, diluted and added in DMSO.

Assay [2] deals with T2, human recombinant ETB receptors (Homo sapiens, UniProt P24530).
T2 construct: expressed in transfected cells; host or cells: CHO cells (microsomal membranes)
T2 sequence (P24530 27-442): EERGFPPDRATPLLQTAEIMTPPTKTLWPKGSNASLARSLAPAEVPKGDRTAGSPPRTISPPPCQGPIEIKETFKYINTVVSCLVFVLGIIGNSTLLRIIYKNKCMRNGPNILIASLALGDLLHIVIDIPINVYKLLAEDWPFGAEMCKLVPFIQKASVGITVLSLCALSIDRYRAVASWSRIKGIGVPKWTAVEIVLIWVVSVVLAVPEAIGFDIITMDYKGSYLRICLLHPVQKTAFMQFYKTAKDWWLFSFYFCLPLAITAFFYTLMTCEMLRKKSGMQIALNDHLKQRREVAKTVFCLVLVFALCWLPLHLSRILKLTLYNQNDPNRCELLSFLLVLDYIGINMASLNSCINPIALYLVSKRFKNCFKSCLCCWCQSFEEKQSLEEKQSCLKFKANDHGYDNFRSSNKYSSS
Briefly: Inhibition of [125I]ET-1 binding to membranes from CHO cells carrying human ETB receptors. As for the experimental part: as §1, §2, §3, §4
Note: 2.5% DMSO.

The term IC50 denotes the concentration that inhibits the measured activity by half. For the molecule `CCS(=O)(=O)Nc1ncnc(OCCOc2ncc(SC)cn2)c1-c1ccc(C)cc1` [Example 2, ethanesulfonic acid {6-[2-(5-methylsulfanyl-pyrimidin-2-yloxy)-ethoxy]-5-p-tolyl-pyrimidin-4-yl}-amide], the values for the IC50 in assay [1] and in assay [2] were 5.99 nM and 989 nM, respectively.

For `CCCCS(=O)(=O)Nc1nc(C2CC2)nc(OCCOc2ncc(OC)cn2)c1-c1ccc(C)cc1` [Example 78], the figures for the 50% inhibitory concentration (IC50) in assay [1] and in assay [2] were 10 nM and > 1000 nM, respectively.

`CS(=O)(=O)Nc1ncnc(OCCOc2ncc(Br)cn2)c1-c1ccc(Br)cc1` [Example 53]: the IC50 in assay [1] came out at 1.1 nM; in assay [2], 824 nM.

On to `CCCS(=O)(=O)Nc1ncnc(OCCOc2ncc(SC)cn2)c1-c1ccc(C)cc1` [Example 5, propane-1-sulfonic acid {6-[2-(5-methylsulfanyl-pyrimidin-2-yloxy)-ethoxy]-5-p-tolyo-pyrimidin-4-yl}-amide], for which the IC50 in assay [1] was 3.6 nM; in assay [2], > 1000 nM.

As for `CCCS(=O)(=O)Nc1ncnc(OCCOc2ncc(Br)cn2)c1-c1ccc(C)cc1` [Example 4, n-propanesulfonic acid {6-[2-(5-bromo-pyrimidin-2-yloxy)-ethoxy]-5-p-tolyl-pyrimidin-4-yl}-amide], the IC50 is 6.34 nM in assay [1] and > 1000 nM in assay [2].

On to `CCS(=O)(=O)Nc1ncnc(OCCOc2ncc(S(C)(=O)=O)cn2)c1-c1ccc(Cl)cc1` [Example 69], for which the IC50 in assay [1] was determined as 1.2 nM; in assay [2] it was 314 nM.

For the molecule `COc1ccccc1Oc1c(NS(C)(=O)=O)nc(-c2ncccn2)nc1OCCOc1ncc(SC)cn1` [Example 16], the IC50 turned out to be 12 nM in assay [1] and 79 nM in assay [2].

`CCS(=O)(=O)Nc1nc(-c2ncccn2)nc(OCCOc2ncc(SC)cn2)c1Oc1ccccc1OC` [Example 11, ethanesulfonic acid [6-[2-(5-methylsulfanyl-pyrimidin-2-yloxy)-ethoxy]-5-(2-methoxy-phenoxy)-[2,2′]bipyrimidinyl-4-yl]-amide]: the IC50 in assay [1] worked out at 5.3 nM; in assay [2], 59 nM.

In the case of `CCS(=O)(=O)Nc1ncnc(OCCOc2ncc(SC)cn2)c1Oc1ccccc1OC` [Example 42], the IC50 in assay [1] stood at 5.7 nM; in assay [2], 105 nM.

Turning to `CS(=O)(=O)Nc1ncnc(OCCOc2ncc(S(C)(=O)=O)cn2)c1-c1ccc(Br)cc1` [Example 56], the 50% inhibitory concentration (IC50) in assay [1] was 1.6 nM; in assay [2], 359 nM.

`CCCCS(=O)(=O)Nc1ncnc(OCCOc2ncc(OC)cn2)c1Oc1cccc(OC)c1` [Example 29]: the figures for the IC50 in assay [1] and in assay [2] were 8.4 nM and 402 nM, respectively.

Regarding `CCCCS(=O)(=O)Nc1nc(-c2ncccn2)nc(OCCOc2ncc(SC)cn2)c1Oc1ccccc1OC` [Example 27], the IC50 in assay [1] amounted to 2.8 nM; in assay [2] it was 153 nM.

In the case of `CCS(=O)(=O)Nc1ncnc(OCCOc2ncc(SC)cn2)c1-c1ccc(Cl)cc1` [Example 68], the figures for the IC50 in assay [1] and in assay [2] were 1.2 nM and 563 nM, respectively.

`CCCS(=O)(=O)Nc1ncnc(OCCOc2ncc(OC)cn2)c1Oc1ccccc1OC` [Example 33]: the IC50 in assay [1] is 40 nM; in assay [2], > 1000 nM.

Consider `CCCS(=O)(=O)Nc1nc(-c2ncccn2)nc(OCCOc2ncc(SC)cn2)c1Oc1ccccc1OC` [Example 9, n-propanesulfonic acid [6-[2-(5-methylsulfanyl-pyrimidin-2-yloxy)-ethoxy]-5-(2-methoxy-phenoxy)-[2,2′]bipyrimidinyl-4-yl]-amide], for which the IC50 in assay [1] was determined as 5.2 nM; in assay [2], 187 nM.

As for `COc1ccccc1Oc1c(NS(C)(=O)=O)ncnc1OCCOc1ncc(Br)cn1` [Example 17], the IC50 in assay [1] is 33 nM; in assay [2], 599 nM.

Consider `COc1cnc(OCCOc2nc(-c3ncccn3)nc(NS(C)(=O)=O)c2Oc2ccccc2OC)nc1` [Example 15], for which the IC50 worked out at 125 nM in assay [1] and 729 nM in assay [2].

For `CCCCS(=O)(=O)Nc1nc(C2CC2)nc(OCCOc2ncc(SC)cn2)c1-c1ccc(C)cc1` [Example 79], the IC50 is 2.1 nM in assay [1] and > 1000 nM in assay [2].
